Holding throughout (assay type): in vivo
One assay deals with SIDSP. Put plainly: Glass-house ED90 of paraquat dichloride plus adjuvant, SIDSP. The following applies: paraquat dichloride 15, 45, 135 and 270 g/ha paraquat ion; adjuvant 0.1% w/v; 18 days after treatment.
Assay [1] concerns Soghinm halepenise(SORHA). Briefly: Glass-house ED90 of glyphosate salts, SORHA. The settings on record: calculated dose for 90% control; rates 500-4000 glyphosate acid equivalent/ha; AL2042 0.25% w/v with all treatments; 22 days after treatment. An excerpt:
This Example illustrates the use of salts of glyphosate acid and the adjuvants of Formula (I).
Glyphosate trimesium and the glyphosate salts of the indicated adjuvants of formula (I) were applied to Soghinm halepenise(SORHA) at 500, 1000, 2000 and 4000 glyphosate acid equivalent/ha. All treatments were made up in deionised water and applied using a tracksprayer with a 11002 nozzle at a spray application volume of 200 l/ha . All treatments were replicated 3 times. After spraying the plants were laid out in a glass-house and maintained at a temperature of 24° C. by day and 19° C. by night. A visual assessment of % control was carried out 22 days after treatment and calculated doses for 90% control (ED90) were derived. AL2042 alkylpolygylcoside was used at 0.25% w/v as additional surfactant with all treatments. It will be appreciated that a low ED90 value indicates high activity.

For assay [2], the system named is Ipomoea hederacea (IPOHE). Put plainly: Glass-house visual % control with potassium glyphosate plus adjuvant, IPOHE. The settings on record: potassium glyphosate 300 g glyphosate acid equivalent/ha, AL2042 0.2% w/v, CRODAFOS T5A salts 0.2% w/v phosphate ester acid equivalent, 16 days after treatment. The source says:
This Example illustrates the use of a salt of ethoxy (5 moles of EO) isotridecyl phosphate, ester in the acid form (CRODAFOS T5A) with JEFFAMINE ED600. CRODAFOS T5A is a mixture of mono and di esters. CRODAFOS is a tradename of Croda.
Potassium glyphosate, in combination with the adjuvants specified below, was applied to Ipomoea hederacea (IPOHE) at 300 g glyphosate acid equivalent/ha. All treatments were made up in deionised water and applied using a tracksprayer with a 11002 nozzle at a spray application volume of 200 l/ha. All treatments were replicated 4 times. After spraying the plants were laid out in a glass-house and maintained at a temperature of 24° C. by day and 19° C. by night. A visual assessment of % control was carried out 16 days after treatment.
The AL2042 was applied at 0.2% w/v and the CRODAFOS T5A salts were applied at 0.2% w/v phosphate ester acid equivalent. The Crodafos T5A potassium salt was prepared by neutralising the phosphate ester in its acid form with potassium hydroxide to pH6. The CRODAFOS T5A JEFFAMINE ED600 salt was prepared by neutralising the phosphate ester in its acid form with JEFFAMINE ED600 to pH6.

For assay [3], the system named is Abutilon theophrasti (ABUTH). Briefly: Glass-house visual % control with potassium glyphosate plus adjuvant. The settings on record: potassium glyphosate 500 g glyphosate acid equivalent/ha, adjuvant 0.2% w/v, 200 l/ha, 16 days after treatment, 0=unaffected, 100=complete kill. The protocol:
Potassium glyphosate was applied at 500 g glyphosate acid equivalent/ha to Abutilon theophrasti (ABUTH) plants grown in the glass-house. All treatments were made up in deionised water and applied using a tracksprayer with a 11002 nozzle at a spray application volume of 200 l/ha . All treatments were replicated 4 times. After spraying the plants were laid out in a glass-house and maintained at a temperature of 24° C. by day and 19° C. by night. The JEFFAMINE adjuvants were used in a proportion 0.2% w/v. A visual assessment of % control, where 0=unaffected and 100=complete kill, was carried out 16 days after treatment.

Consider `C[n+]1ccc(-c2cc[n+](C)cc2)cc1` [Control — No adjuvant, Paraquat dichloride], for which the “ED90 SIDSP” value with SIDSP is on record as “(>270) g paraquat ion per litre”.
As for `C[S+](C)C.O=C([O-])CNCP(=O)(O)O` [Glyphosate trimesium], in assay [1], the “SORHA — ED90” value is given as 1410 gae/ha.
For the compound `O=C(O)CNCP(=O)([O-])O.[K+]` [No adjuvant, Potassium glyphosate], in assay [2], the “IPOHE — % control” value amounted to 64%. Moreover, in assay [3], the “% control” value came to 37%.

The values above are taken from patent US6750178B1, “Agrochemical composition” (Syngenta Limited, priority 1999, dated 2004).
